# Tested on: K562/ADR
# Experiment: Leukemia cell growth inhibition, MTT, 72 h
# Assay type: cell-based
# Conditions: Homo sapiens
# Outline: (§1)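 Viability determined by MTT following a 72-hour, 37° C, 5% CO2 incubation with test compounds at different concentrations, added the day after seeding 6000 cells per well.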
IC50,IC90,SMILES
0.37 µg/mL,1.57 µg/mL,C=C1C(=O)[C@]23[C@H](OC(=O)c4ccc(Cl)cc4)[C@H]1CC[C@H]2[C@@]12CO[C@@]3(O)[C@@H](O)[C@@H]1C(C)(C)CC[C@@H]2OC(C)=O [BS-OR-093]

# Tested on: Kasumi-1
# Experiment: Leukemia cell growth inhibition, MTT, 72 h
# Assay type: cell-based
# Conditions: Homo sapiens
# Outline: as §1
IC50,IC90,SMILES
0.41 µg/mL,1.31 µg/mL,C=C1C(=O)[C@]23[C@H](OC(=O)c4ccc(Cl)cc4)[C@H]1CC[C@H]2[C@@]12CO[C@@]3(O)[C@@H](O)[C@@H]1C(C)(C)CC[C@@H]2OC(C)=O [BS-OR-093]

# Tested on: H9
# Experiment: Leukemia cell growth inhibition, MTT, 72 h
# Assay type: cell-based, human
# Conditions: Homo sapiens, H9; 72 h, MTT
# Outline: as §1
IC50,IC90,SMILES
0.06 µg/mL,0.33 µg/mL,C=C1C(=O)[C@]23[C@H](OC(=O)c4ccc(Cl)cc4)[C@H]1CC[C@H]2[C@@]12CO[C@@]3(O)[C@@H](O)[C@@H]1C(C)(C)CC[C@@H]2OC(C)=O [BS-OR-093]

# Same assay, conditions: as compared with oridonin
row,SMILES,anti-H9 cell line activity increased
1,C=C1C(=O)[C@]23[C@H](OC(=O)c4ccc(Cl)cc4)[C@H]1CC[C@H]2[C@@]12CO[C@@]3(O)[C@@H](O)[C@@H]1C(C)(C)CC[C@@H]2OC(C)=O [BS-OR-093],22 fold

# Tested on: Jurkat
# Experiment: Leukemia cell growth inhibition, MTT, 72 h
# Assay type: cell-based, human
# Conditions: Homo sapiens, Jurkat; 72 h, MTT
# Outline: as §1
IC50,IC90,SMILES
0.44 µg/mL,3.03 µg/mL,C=C1C(=O)[C@]23[C@H](OC(=O)c4ccc(Cl)cc4)[C@H]1CC[C@H]2[C@@]12CO[C@@]3(O)[C@@H](O)[C@@H]1C(C)(C)CC[C@@H]2OC(C)=O [BS-OR-093]

# Tested on: NB4
# Experiment: Leukemia cell growth inhibition, MTT, 72 h
# Assay type: cell-based, human
# Conditions: Homo sapiens, NB-4; 72 h, MTT
# Outline: as §1
IC50,IC90,SMILES
0.05 µg/mL,0.47 µg/mL,C=C1C(=O)[C@]23[C@H](OC(=O)c4ccc(Cl)cc4)[C@H]1CC[C@H]2[C@@]12CO[C@@]3(O)[C@@H](O)[C@@H]1C(C)(C)CC[C@@H]2OC(C)=O [BS-OR-093]

# Same assay, conditions: as compared with oridonin
row,SMILES,anti-NB4 cell line activity increased
1,C=C1C(=O)[C@]23[C@H](OC(=O)c4ccc(Cl)cc4)[C@H]1CC[C@H]2[C@@]12CO[C@@]3(O)[C@@H](O)[C@@H]1C(C)(C)CC[C@@H]2OC(C)=O [BS-OR-093],15 fold

# Tested on: RPMI 8226
# Experiment: Multiple myeloma cell growth inhibition, MTT, 72 h
# Assay type: cell-based
# Conditions: Homo sapiens
# Outline: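 Growth inhibition by MTT after 72 h drug exposure (37 °C, 5% CO2) over a concentration range of oridonin derivatives. RPMI 8226 cells plated at 6000 per well and dosed the following day.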
IC50,IC90,SMILES
0.2 µg/mL,1.55 µg/mL,C=C1C(=O)[C@]23[C@H](OC(=O)c4ccc(Cl)cc4)[C@H]1CC[C@H]2[C@@]12CO[C@@]3(O)[C@@H](O)[C@@H]1C(C)(C)CC[C@@H]2OC(C)=O [BS-OR-093]

# Tested on: CNE
# Experiment: Solid tumor cell growth inhibition, MTT, 72 h
# Assay type: cell-based, human
# Conditions: Homo sapiens, CNE; 72 h, MTT
# Outline: (§2)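 After overnight-scale attachment (24 hours, 37° C, 5% CO2) in 10% FBS high-glucose DMEM, wells holding 6000 cells were dosed with varying compound concentrations and later scored for viable cell concentration.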
IC50,IC90,SMILES
1.31 µg/mL,5.02 µg/mL,C=C1C(=O)[C@]23[C@H](OC(=O)c4ccc(Cl)cc4)[C@H]1CC[C@H]2[C@@]12CO[C@@]3(O)[C@@H](O)[C@@H]1C(C)(C)CC[C@@H]2OC(C)=O [BS-OR-093]

# Tested on: Hela
# Experiment: Solid tumor cell growth inhibition, MTT, 72 h
# Assay type: cell-based, human
# Conditions: Homo sapiens, HeLa; 72 h, MTT
# Outline: as §2
IC50,IC90,SMILES
1.02 µg/mL,3.45 µg/mL,C=C1C(=O)[C@]23[C@H](OC(=O)c4ccc(Cl)cc4)[C@H]1CC[C@H]2[C@@]12CO[C@@]3(O)[C@@H](O)[C@@H]1C(C)(C)CC[C@@H]2OC(C)=O [BS-OR-093]

# Tested on: Hep-2
# Experiment: Solid tumor cell growth inhibition, MTT, 72 h
# Assay type: cell-based, human
# Conditions: Homo sapiens, HEp-2; 72 h, MTT
# Outline: as §2
IC50,IC90,SMILES
1.42 µg/mL,6.91 µg/mL,C=C1C(=O)[C@]23[C@H](OC(=O)c4ccc(Cl)cc4)[C@H]1CC[C@H]2[C@@]12CO[C@@]3(O)[C@@H](O)[C@@H]1C(C)(C)CC[C@@H]2OC(C)=O [BS-OR-093]

# Tested on: MGC-803
# Experiment: Solid tumor cell growth inhibition, MTT, 72 h
# Assay type: cell-based, human
# Conditions: Homo sapiens, MGC-803; 72 h, MTT
# Outline: as §2
IC50,IC90,SMILES
0.79 µg/mL,6.73 µg/mL,C=C1C(=O)[C@]23[C@H](OC(=O)c4ccc(Cl)cc4)[C@H]1CC[C@H]2[C@@]12CO[C@@]3(O)[C@@H](O)[C@@H]1C(C)(C)CC[C@@H]2OC(C)=O [BS-OR-093]

# Tested on: A549
# Experiment: Solid tumor cell growth inhibition, MTT, 72 h
# Assay type: cell-based
# Conditions: Homo sapiens
# Outline: as §2
IC50,IC90,SMILES
1.78 µg/mL,6.68 µg/mL,C=C1C(=O)[C@]23[C@H](OC(=O)c4ccc(Cl)cc4)[C@H]1CC[C@H]2[C@@]12CO[C@@]3(O)[C@@H](O)[C@@H]1C(C)(C)CC[C@@H]2OC(C)=O [BS-OR-093]

# Tested on: Becap-37
# Experiment: Solid tumor cell growth inhibition, MTT, 72 h
# Assay type: cell-based
# Conditions: Homo sapiens
# Outline: as §2
IC50,IC90,SMILES
1.1 µg/mL,1.99 µg/mL,C=C1C(=O)[C@]23[C@H](OC(=O)c4ccc(Cl)cc4)[C@H]1CC[C@H]2[C@@]12CO[C@@]3(O)[C@@H](O)[C@@H]1C(C)(C)CC[C@@H]2OC(C)=O [BS-OR-093]

# Tested on: CaEs-17
# Experiment: Solid tumor cell growth inhibition, MTT, 72 h
# Assay type: cell-based
# Conditions: Homo sapiens, CaEs17
# Outline: as §2
IC50,IC90,SMILES
0.86 µg/mL,5.21 µg/mL,C=C1C(=O)[C@]23[C@H](OC(=O)c4ccc(Cl)cc4)[C@H]1CC[C@H]2[C@@]12CO[C@@]3(O)[C@@H](O)[C@@H]1C(C)(C)CC[C@@H]2OC(C)=O [BS-OR-093]

# Tested on: Hep G2
# Experiment: Solid tumor cell growth inhibition, MTT, 72 h
# Assay type: cell-based
# Conditions: Homo sapiens, HepG2
# Outline: as §2
IC50,IC90,SMILES
0.96 µg/mL,7.13 µg/mL,C=C1C(=O)[C@]23[C@H](OC(=O)c4ccc(Cl)cc4)[C@H]1CC[C@H]2[C@@]12CO[C@@]3(O)[C@@H](O)[C@@H]1C(C)(C)CC[C@@H]2OC(C)=O [BS-OR-093]

# Tested on: MG-63
# Experiment: Solid tumor cell growth inhibition, MTT, 72 h
# Assay type: cell-based
# Conditions: Homo sapiens
# Outline: as §2
IC50,IC90,SMILES
0.45 µg/mL,2.31 µg/mL,C=C1C(=O)[C@]23[C@H](OC(=O)c4ccc(Cl)cc4)[C@H]1CC[C@H]2[C@@]12CO[C@@]3(O)[C@@H](O)[C@@H]1C(C)(C)CC[C@@H]2OC(C)=O [BS-OR-093]

# Tested on: PANC-1
# Experiment: Solid tumor cell growth inhibition, MTT, 72 h
# Assay type: cell-based
# Conditions: Homo sapiens
# Outline: as §2
IC50,IC90,SMILES
1.69 µg/mL,9.36 µg/mL,C=C1C(=O)[C@]23[C@H](OC(=O)c4ccc(Cl)cc4)[C@H]1CC[C@H]2[C@@]12CO[C@@]3(O)[C@@H](O)[C@@H]1C(C)(C)CC[C@@H]2OC(C)=O [BS-OR-093]

# Tested on: PC-3
# Experiment: Solid tumor cell growth inhibition, MTT, 72 h
# Assay type: cell-based
# Conditions: Homo sapiens
# Outline: as §2
IC50,IC90,SMILES
1.6 µg/mL,5.12 µg/mL,C=C1C(=O)[C@]23[C@H](OC(=O)c4ccc(Cl)cc4)[C@H]1CC[C@H]2[C@@]12CO[C@@]3(O)[C@@H](O)[C@@H]1C(C)(C)CC[C@@H]2OC(C)=O [BS-OR-093]

# Tested on: RKO
# Experiment: Solid tumor cell growth inhibition, MTT, 72 h
# Assay type: cell-based
# Conditions: Homo sapiens
# Outline: as §2
IC50,IC90,SMILES
0.41 µg/mL,0.92 µg/mL,C=C1C(=O)[C@]23[C@H](OC(=O)c4ccc(Cl)cc4)[C@H]1CC[C@H]2[C@@]12CO[C@@]3(O)[C@@H](O)[C@@H]1C(C)(C)CC[C@@H]2OC(C)=O [BS-OR-093]

# Tested on: SK-OV-3
# Experiment: Solid tumor cell growth inhibition, MTT, 72 h
# Assay type: cell-based
# Conditions: Homo sapiens, SK-OV-3; 72 h, MTT; read-out: IC50 SK-OV-3
# Outline: as §2
row,IC50,SMILES
1,1.6 µg/mL,C=C1C(=O)[C@]23[C@H](OC(=O)c4ccc(Cl)cc4)[C@H]1CC[C@H]2[C@@]12CO[C@@]3(O)[C@@H](O)[C@@H]1C(C)(C)CC[C@@H]2OC(C)=O [BS-OR-093]

# Same assay, conditions: Homo sapiens, SK-OV-3; 72 h, MTT; read-out: IC90 SK-OV-3
row,IC90,SMILES
1,5.12 µg/mL,C=C1C(=O)[C@]23[C@H](OC(=O)c4ccc(Cl)cc4)[C@H]1CC[C@H]2[C@@]12CO[C@@]3(O)[C@@H](O)[C@@H]1C(C)(C)CC[C@@H]2OC(C)=O [BS-OR-093]

# Tested on: U87-MG
# Experiment: Solid tumor cell growth inhibition, MTT, 72 h
# Assay type: cell-based
# Conditions: Homo sapiens, U-87 MG
# Outline: as §2
IC50,IC90,SMILES
0.56 µg/mL,1.89 µg/mL,C=C1C(=O)[C@]23[C@H](OC(=O)c4ccc(Cl)cc4)[C@H]1CC[C@H]2[C@@]12CO[C@@]3(O)[C@@H](O)[C@@H]1C(C)(C)CC[C@@H]2OC(C)=O [BS-OR-093]
